Experiment [1] addresses T1, Fatty acid-binding protein, adipocyte (Homo sapiens, UniProt P15090). Briefly: Displacement of [3H]2,3-bis[(2,4-dichlorobenzyl)oxy]benzoic acid from aFABP.
Experiment [2] deals with Fatty acid-binding protein, heart (Homo sapiens, UniProt P05413). Put plainly: Displacement of 1,8-ANS from mFABP by fluorescence based-assay.
The target in experiment [3] is Fatty acid-binding protein 5 (Homo sapiens, UniProt Q01469). Briefly: Displacement of 1,8-ANS from eFABP by fluorescence based-assay.
Chain of Fatty acid-binding protein 5 (Q01469 whole entry): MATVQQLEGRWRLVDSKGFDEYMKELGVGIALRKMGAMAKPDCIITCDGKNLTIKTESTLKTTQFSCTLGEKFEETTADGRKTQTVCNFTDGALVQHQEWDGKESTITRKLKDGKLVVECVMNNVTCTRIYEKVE
The target in experiment [4] is T1, Fatty acid-binding protein, adipocyte. Put plainly: Displacement of 1,8-ANS from aFABP by fluorescence based-assay.
The target is the same in experiment [5]. Put plainly: Binding affinity to aFABP.
The species entered for experiment [6] is Homo sapiens. Briefly: Selectivity for aFABP over mFABP by 1,8-ANS fluorescence based-assay.

Structures are written as SMILES. Some results are limits rather than exact numbers.

Chain of Fatty acid-binding protein, heart (P05413 whole entry): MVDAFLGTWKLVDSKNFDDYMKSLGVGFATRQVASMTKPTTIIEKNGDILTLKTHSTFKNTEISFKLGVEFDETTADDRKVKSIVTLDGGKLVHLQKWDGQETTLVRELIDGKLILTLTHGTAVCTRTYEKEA
T1 sequence (P15090 whole entry): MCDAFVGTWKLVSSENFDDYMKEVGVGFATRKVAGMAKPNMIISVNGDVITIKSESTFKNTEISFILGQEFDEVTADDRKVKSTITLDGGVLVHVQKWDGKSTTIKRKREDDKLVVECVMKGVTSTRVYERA

Regarding `O=C(O)COc1cccc(-c2ccccc2-c2nc(-c3ccccc3)c(-c3ccccc3)n2CCF)c1`, the Ki in experiment [1] was 8.7 nM; in experiment [2], more than 1000 nM; in experiment [3], more than 2000 nM; in experiment [4], less than 2 nM.

In turn, `[3H]c1c(Cl)ccc(COc2cccc(C(=O)O)c2OCc2ccc(Cl)c([3H])c2Cl)c1Cl` yielded a Kd in experiment [5] of 21 nM. In addition, the Ki in experiment [2] was found to be 4 nM; in experiment [3] it was 2 nM; in experiment [4], 2 nM.

Consider `CCCCCCCC/C=C\CCCCCCCC(=O)O` [OLEIC ACID], for which the affinity in experiment [3], expressed as Ki, was 248 nM.

`O=C(O)COc1cccc(-c2ccccc2-c2cc(-c3ccccc3)c(-c3ccccc3)o2)c1`: the values for the Ki in experiment [2], in experiment [3] and in experiment [4] were more than 1000 nM, more than 2000 nM and 36 nM, respectively.

As for `O=C(O)CNc1cccc(-c2ccccc2-c2nc(-c3ccccc3)c(-c3ccccc3)n2CC(=O)O)c1`, the values for the Ki in experiment [2], in experiment [3] and in experiment [4] were more than 1000 nM, more than 2000 nM and more than 2000 nM, respectively.

For the molecule `O=C(O)COc1cccc(-c2ccccc2-c2nc(-c3ccccc3)c(-c3ccccc3)o2)c1`, the Ki in experiment [1] is 95 nM; in experiment [2], more than 1000 nM; in experiment [3] it was more than 2000 nM; in experiment [4] it was 6 nM. Also, the Ratio Ki in experiment [6] stood at 170.

Consider `O=C(O)CCCCOc1ccccc1-c1nc(-c2ccccc2)c(-c2ccccc2)o1`, for which the Ki in experiment [2] is 32 nM; in experiment [3], more than 2000 nM; in experiment [4] it was 58 nM.

On to `CCn1c(-c2ccccc2-c2cccc(NCC(=O)O)c2)nc(-c2ccccc2)c1-c1ccccc1`, for which the Ki is 13 nM in experiment [1], more than 1000 nM in experiment [2], more than 2000 nM in experiment [3] and 3.4 nM in experiment [4].

Regarding `CC(C)Cn1c(-c2ccccc2-c2cccc(NCC(=O)O)c2)nc(-c2ccccc2)c1-c1ccccc1`, the Ki in experiment [2] is more than 1000 nM; in experiment [3], more than 2000 nM; in experiment [4], 130 nM.

For `O=C(O)COc1cccc(-c2ccccc2-c2nc(-c3ccccc3)c(-c3ccccc3)[nH]2)c1`, the Ki in experiment [2] was more than 1000 nM; in experiment [3], more than 2000 nM; in experiment [4], 9.3 nM.

As for `CCc1c(-c2ccccc2)c(-c2ccccc2)nn1-c1ccccc1-c1cccc(C(=O)O)c1`, the Ki in experiment [2] was 110 nM; in experiment [4] it was 650 nM.

With `Cn1c(-c2ccccc2-c2cccc(OCC(=O)O)c2)nc(-c2ccccc2)c1-c1ccccc1`, the Ki was 13 nM in experiment [1], more than 1000 nM in experiment [2] and less than 2 nM in experiment [4].

Regarding `O=C(O)COc1cccc(-c2ccccc2-c2cc(-c3ccccc3)c(-c3ccccc3)[nH]2)c1`, the figures for the Ki in experiment [2], in experiment [3] and in experiment [4] were more than 1000 nM, more than 2000 nM and 12 nM, respectively.

`CCn1c(-c2ccccc2-c2cccc(OCC(=O)O)c2)nc(-c2ccccc2)c1-c1ccccc1`: the figures for the Ki in experiment [1], in experiment [2] and in experiment [4] were 3.3 nM, more than 1000 nM and less than 2 nM, respectively.

Consider `CCc1c(-c2ccccc2-c2cccc(OCC(=O)O)c2)oc(-c2ccccc2)c1-c1ccccc1`, for which the Ki in experiment [1] came out at 32 nM; in experiment [2], 220 nM; in experiment [4], 3.5 nM.

`Cn1c(-c2ccccc2-c2cccc(NCC(=O)O)c2)nc(-c2ccccc2)c1-c1ccccc1`: the Ki in experiment [1] was 48 nM; in experiment [2] it was more than 1000 nM; in experiment [3], more than 2000 nM; in experiment [4], 2.7 nM.

On to `O=C(O)CNc1cccc(-c2ccccc2-c2nc(-c3ccccc3)c(-c3ccccc3)[nH]2)c1`, for which the Ki in experiment [1] is 300 nM; in experiment [2] it was more than 1000 nM; in experiment [3], more than 2000 nM; in experiment [4] it was 18 nM.

With `O=S(=O)(O)c1cccc2cccc(Nc3ccccc3)c12`, in experiment [5], the Kd stood at 150 nM. The same molecule showed a Ki in experiment [1] of 1000 nM.

`CCc1c(-c2ccccc2)c(-c2ccccc2)nn1-c1ccccc1-c1cccc(C(O)C(=O)O)c1` (stereo not given): the Ki in experiment [2] worked out at 360 nM; in experiment [3], 550 nM; in experiment [4], 28 nM.

One may read the Ki as a dissociation constant, usually derived from enzyme kinetics or from competition with a known ligand. A high value points to a looser hold on the target. For orientation: Kd means the equilibrium constant for the complex coming apart. A high value points to a looser complex.

These data come from ChEMBL document CHEMBL1139984, “Potent and selective biphenyl azole inhibitors of adipocyte fatty acid binding protein (aFABP)” (Bioorg Med Chem Lett, 2007).
